From paper PMC10819888, “Benzimidazole-Based Derivatives as Apoptotic Antiproliferative Agents: Design, Synthesis, Docking, and Mechanistic Studies” (Molecules, 2024)

What was measured:
SF-295 = experiment: NCI-60 one-dose assay; format: cell-based; settings: Homo sapiens, SF-295 (CNS cancer), read-out: Cell Inhibition Percent
HT29 = experiment: NCI-60 one-dose assay; format: cell-based; settings: Homo sapiens, HT-29, HT29 (Colon Cancer), read-out: Cell Inhibition Percent
MALME-3M = experiment: NCI-60 one-dose assay; format: cell-based; settings: Homo sapiens, MALME-3M (Melanoma), read-out: Cell Inhibition Percent
MCF7 = experiment: NCI-60 one-dose assay; format: cell-based; settings: Homo sapiens, MCF7 (Breast Cancer), read-out: Cell Inhibition Percent
U251 = experiment: NCI-60 one-dose assay; format: cell-based; settings: Homo sapiens, U-251, U251 (CNS cancer), read-out: Cell Inhibition Percent
NCI/ADR-RES = experiment: NCI-60 one-dose assay; format: cell-based; settings: Homo sapiens, NCI/ADR-RES (ovarian cancer), read-out: Cell Inhibition Percent
MOLT-4 = experiment: NCI-60 one-dose assay; format: cell-based; settings: Homo sapiens, MOLT-4 (Leukemia), read-out: Cell Inhibition Percent
CCRF-CEM = experiment: NCI-60 one-dose assay; format: cell-based; settings: Homo sapiens, CCRF-CEM (Leukemia), read-out: Cell Inhibition Percent
SK-MEL-2 = experiment: NCI-60 one-dose assay; format: cell-based; settings: Homo sapiens, SK-MEL-2 (Melanoma), read-out: Cell Inhibition Percent
EKVX = experiment: NCI-60 one-dose assay; format: cell-based; settings: Homo sapiens, EKVX (Non-Small Cell Lung Cancer), read-out: Cell Inhibition Percent
SNB-75 = experiment: NCI-60 one-dose assay; format: cell-based; settings: Homo sapiens, SNB-75 (CNS cancer), read-out: Cell Inhibition Percent
MDA-MB 231 = experiment: NCI-60 one-dose assay; format: cell-based; settings: Homo sapiens, MDA-MB 231 (Breast Cancer), read-out: Cell Inhibition Percent
NCI-H23 = experiment: NCI-60 one-dose assay; format: cell-based; settings: Homo sapiens, NCI-H23 (Non-Small Cell Lung Cancer), read-out: Cell Inhibition Percent
SF-268 = experiment: NCI-60 one-dose assay; format: cell-based; settings: Homo sapiens, SF-268 (CNS cancer), read-out: Cell Inhibition Percent
SW-620 = experiment: NCI-60 one-dose assay; format: cell-based; settings: Homo sapiens, SW-620 (Colon Cancer), read-out: Cell Inhibition Percent
NCI-H226 = experiment: NCI-60 one-dose assay; format: cell-based; settings: Homo sapiens, NCI-H226 (Non-Small Cell Lung Cancer), read-out: Cell Inhibition Percent
SK-MEL-28 = experiment: NCI-60 one-dose assay; format: cell-based; settings: Homo sapiens, SK-MEL-28 (Melanoma), read-out: Cell Inhibition Percent
A549/ATCC = experiment: NCI-60 one-dose assay; format: cell-based; settings: Homo sapiens, A549/ATCC (Non-Small Cell Lung Cancer), read-out: Cell Inhibition Percent
TK-10 = experiment: NCI-60 one-dose assay; format: cell-based; settings: Homo sapiens, TK-10 (Renal Cancer), read-out: Cell Inhibition Percent
IGROV1 = experiment: NCI-60 one-dose assay; format: cell-based; settings: Homo sapiens, IGROV-1, IGROV1 (ovarian cancer), read-out: Cell Inhibition Percent
RXF 393 = experiment: NCI-60 one-dose assay; format: cell-based; settings: Homo sapiens, RXF 393 (Renal Cancer), read-out: Cell Inhibition Percent
COLO 205 = experiment: NCI-60 one-dose assay; format: cell-based; settings: Homo sapiens, COLO 205 (Colon Cancer), read-out: Cell Inhibition Percent
UACC-257 = experiment: NCI-60 one-dose assay; format: cell-based; settings: Homo sapiens, UACC-257 (Melanoma), read-out: Cell Inhibition Percent
PC-3 = experiment: NCI-60 one-dose assay; format: cell-based; settings: Homo sapiens, PC-3 (Prostate Cancer), read-out: Cell Inhibition Percent
SK-MEL-5 = experiment: NCI-60 one-dose assay; format: cell-based; settings: Homo sapiens, SK-MEL-5 (Melanoma), read-out: Cell Inhibition Percent
SF-539 = experiment: NCI-60 one-dose assay; format: cell-based; settings: Homo sapiens, SF-539 (CNS cancer), read-out: Cell Inhibition Percent
OVCAR-8 = experiment: NCI-60 one-dose assay; format: cell-based; settings: Homo sapiens, OVCAR-8 (ovarian cancer), read-out: Cell Inhibition Percent
SNB-19 = experiment: NCI-60 one-dose assay; format: cell-based; settings: Homo sapiens, SNB-19 (CNS cancer), read-out: Cell Inhibition Percent
OVCAR-3 = experiment: NCI-60 one-dose assay; format: cell-based; settings: Homo sapiens, OVCAR-3 (ovarian cancer), read-out: Cell Inhibition Percent
UACC-62 = experiment: NCI-60 five-dose assay; format: cell-based, human; settings: UACC-62 (Melanoma), 48 h; for GI50 / CC50: Homo sapiens; for GI50: read-out: GI50 Conc. per Cell Line; for CC50: read-out: LC50 (the source's name)

## O=C(NN=Cc1ccc([N+](=O)[O-])cc1)c1ccc2[nH]c(-c3ccc(Cl)cc3)nc2c1 [Compound 4c, N′-(4-Nitrobenzylidene)-2-(4-chlorophenyl)-1H-benzimidazole-5-carbohydrazide]
SF-295
  inhibition at 10 µM: 78.3%
HT29
  inhibition at 10 µM: 91.8%
MALME-3M
  inhibition at 10 µM: 92.2%
MCF7
  inhibition at 10 µM: 99.3%
U251
  inhibition at 10 µM: 77.7%
NCI/ADR-RES
  inhibition at 10 µM: 22.7%
MOLT-4
  inhibition at 10 µM: 95.8%
CCRF-CEM
  inhibition at 10 µM: 90.1%
SK-MEL-2
  inhibition at 10 µM: 33.3%
EKVX
  inhibition at 10 µM: 51%
SNB-75
  inhibition at 10 µM: 30.7%
MDA-MB 231
  inhibition at 10 µM: 23.1%
NCI-H23
  inhibition at 10 µM: 83.8%
SF-268
  inhibition at 10 µM: 51.5%
SW-620
  inhibition at 10 µM: 87.3%
NCI-H226
  inhibition at 10 µM: 45.2%
SK-MEL-28
  inhibition at 10 µM: 54.6%
A549/ATCC
  inhibition at 10 µM: 65.5%
TK-10
  inhibition at 10 µM: 10.2%
IGROV1
  inhibition at 10 µM: 80.9%
RXF 393
  inhibition at 10 µM: 68.4%
COLO 205
  inhibition at 10 µM: 97.7%
UACC-257
  inhibition at 10 µM: 74.9%
PC-3
  inhibition at 10 µM: 78.6%
SK-MEL-5
  inhibition at 10 µM: 97.4%
SF-539
  inhibition at 10 µM: 58.3%
OVCAR-8
  inhibition at 10 µM: 78.4%
SNB-19
  inhibition at 10 µM: 48%
OVCAR-3
  inhibition at 10 µM: 88.7%
UACC-62
  GI50: 3.51 µM
  CC50: 52.2 µM
  TGI: 14.90 µM

## O=C(NN=Cc1ccc(Cl)cc1)c1ccc2[nH]c(-c3ccc(Cl)cc3)nc2c1 [Compound 4e, N′-(4-Chlorobenzylidene)-2-(4-chlorophenyl)-1H-benzimidazole-5-carbohydrazide]
SF-295
  inhibition at 10 µM: 149%
HT29
  inhibition at 10 µM: 98.3%
MALME-3M
  inhibition at 10 µM: 159%
MCF7
  inhibition at 10 µM: 120%
U251
  inhibition at 10 µM: 115%
NCI/ADR-RES
  inhibition at 10 µM: 58.8%
MOLT-4
  inhibition at 10 µM: 95.5%
CCRF-CEM
  inhibition at 10 µM: 84.5%
SK-MEL-2
  inhibition at 10 µM: 61.1%
EKVX
  inhibition at 10 µM: 91.8%
SNB-75
  inhibition at 10 µM: 1.6%
MDA-MB 231
  inhibition at 10 µM: 90.5%
NCI-H23
  inhibition at 10 µM: 100%
SF-268
  inhibition at 10 µM: 62%
SW-620
  inhibition at 10 µM: 128%
NCI-H226
  inhibition at 10 µM: 0.67%
SK-MEL-28
  inhibition at 10 µM: 109%
A549/ATCC
  inhibition at 10 µM: 127%
TK-10
  inhibition at 10 µM: 104%
IGROV1
  inhibition at 10 µM: 127%
RXF 393
  inhibition at 10 µM: 81.1%
COLO 205
  inhibition at 10 µM: 124%
UACC-257
  inhibition at 10 µM: 68.3%
PC-3
  inhibition at 10 µM: 125%
SK-MEL-5
  inhibition at 10 µM: 63.8%
SF-539
  inhibition at 10 µM: 62.9%
OVCAR-8
  inhibition at 10 µM: 85.8%
SNB-19
  inhibition at 10 µM: 95.7%
OVCAR-3
  inhibition at 10 µM: 153%
UACC-62
  GI50: 1.78 µM
  CC50: 6.49 µM
  TGI: 3.40 µM

## COc1cc(/C=N/NC(=O)c2ccc3[nH]c(-c4ccc(Cl)cc4)nc3c2)cc(OC)c1OC [Compound 4h, N′-(3,4,5-Trimethoxybenzylidene)-2-(4-chlorophenyl)-1H-benzimidazole-5 carbohydrazide]
SF-295
  inhibition at 10 µM: 56%
HT29
  inhibition at 10 µM: 60.1%
MALME-3M
  inhibition at 10 µM: 71.6%
MCF7
  inhibition at 10 µM: 87.9%
U251
  inhibition at 10 µM: 46.8%
NCI/ADR-RES
  inhibition at 10 µM: 0%
MOLT-4
  inhibition at 10 µM: 58.5%
CCRF-CEM
  inhibition at 10 µM: 63.4%
SK-MEL-2
  inhibition at 10 µM: 16.4%
EKVX
  inhibition at 10 µM: 4.23%
SNB-75
  inhibition at 10 µM: 13.4%
MDA-MB 231
  inhibition at 10 µM: 0%
NCI-H23
  inhibition at 10 µM: 46.3%
SF-268
  inhibition at 10 µM: 20.3%
SW-620
  inhibition at 10 µM: 21.3%
NCI-H226
  inhibition at 10 µM: 24%
SK-MEL-28
  inhibition at 10 µM: 53.5%
A549/ATCC
  inhibition at 10 µM: 14.2%
TK-10
  inhibition at 10 µM: 22.6%
IGROV1
  inhibition at 10 µM: 31.6%
RXF 393
  inhibition at 10 µM: 63.7%
COLO 205
  inhibition at 10 µM: 54.3%
UACC-257
  inhibition at 10 µM: 45.6%
PC-3
  inhibition at 10 µM: 40.1%
SK-MEL-5
  inhibition at 10 µM: 58.1%
SF-539
  inhibition at 10 µM: 56.2%
OVCAR-8
  inhibition at 10 µM: 39.5%
SNB-19
  inhibition at 10 µM: 29%
OVCAR-3
  inhibition at 10 µM: 38.4%

## O=C(NN=Cc1ccc(Cl)cc1Cl)c1ccc2[nH]c(-c3ccc(Cl)cc3)nc2c1 [Compound 4f, N′-(2,4-Dichlorobenzylidene)-2-(4-chlorophenyl)-1H-benzimidazole-5-carbohydrazide]
SF-295
  inhibition at 10 µM: 1.19%
HT29
  inhibition at 10 µM: 2.18%
MALME-3M
  inhibition at 10 µM: 9.55%
MCF7
  inhibition at 10 µM: 13.4%
U251
  inhibition at 10 µM: 41%
NCI/ADR-RES
  inhibition at 10 µM: 0%
MOLT-4
  inhibition at 10 µM: 72.6%
CCRF-CEM
  inhibition at 10 µM: 48.1%
SK-MEL-2
  inhibition at 10 µM: 2.9%
EKVX
  inhibition at 10 µM: 13.7%
SNB-75
  inhibition at 10 µM: 12.4%
MDA-MB 231
  inhibition at 10 µM: 11.4%
NCI-H23
  inhibition at 10 µM: 4.26%
SF-268
  inhibition at 10 µM: 3.63%
SW-620
  inhibition at 10 µM: 4.3%
NCI-H226
  inhibition at 10 µM: 18.8%
SK-MEL-28
  inhibition at 10 µM: 0%
A549/ATCC
  inhibition at 10 µM: 4.7%
TK-10
  inhibition at 10 µM: 0%
IGROV1
  inhibition at 10 µM: 31%
RXF 393
  inhibition at 10 µM: 12.5%
COLO 205
  inhibition at 10 µM: 0%
UACC-257
  inhibition at 10 µM: 6.59%
PC-3
  inhibition at 10 µM: 7.03%
SK-MEL-5
  inhibition at 10 µM: 2.92%
SF-539
  inhibition at 10 µM: 5.73%
OVCAR-8
  inhibition at 10 µM: 17.1%
SNB-19
  inhibition at 10 µM: 7.76%
OVCAR-3
  inhibition at 10 µM: 0%
